Tested on: HIV-1 LAI
Experiment: microbe, parasite or virus in culture
Details: for Combination Indices at % HIV Inhibition (Confidence Interval) 50% / Combination Indices at % HIV Inhibition (Confidence Interval) 75% / Combination Indices at % HIV Inhibition (Confidence Interval) 90%: 95% confidence interval in parentheses; for EC50: Human immunodeficiency virus 1, MT2, 120 h; for Overall Result (combined anti-HIV effect): all ratios, MT-2 cells, HIV-1 LAI
Description: Virus and cell lines. The T-cell lines, MT-2 and PM-1 were obtained through the AIDS Research and Reference Reagent Program, NIAID, and were contributed by Dr. D. Richman and Dr. R. Gallo, respectively. Both cell lines were cultured in RPMI 1640 medium supplemented with 10% fetal bovine serum, 2 mM L-glutamine and sub-cultured twice a week. The LAI strain of HIV-1 was obtained from the Fred Hutchinson Cancer Research Center, and the Bal strain was from NIH. Both virus stocks were amplified and titered in MT-2 cells (LAI) and PM-1 cells (Bal) using a virus infectivity assay.
Drug Susceptibility and Cytotoxicity Assays. For drug susceptibility assays, MT-2 cells were infected with HIV-1 LAI (or PM-1 cells with HIV-1 Bal) at an MOI of 0.005, and seeded into 96-well microtiter plates (0.1×10^6 cells/ml) containing serial dilutions of test compounds. […] Each drug ratio consisted of an array of 3-fold serial dilutions, and was performed in quadruplicate. The plates were incubated at 37° C./5% CO2. The MT-2 cells infected with HIV-1 LAI were incubated for 5 days. On day-five post-infection, 20 μl from each well was harvested and quantitated by a reverse transcriptase (RT) assay, or in samples involving non-nucleoside RT inhibitors, an MTS assay. The PM-1 cells infected with HIV-1 Bal and used for studying the combinations with CCR5 inhibitors were incubated for six days. On day-six post-infection, 20 μl from each well was harvested, 20- and 50-fold diluted and quantitated by p24 assay. Cytotoxicity assays were performed using uninfected cells, exposed to the same drug combinations, and incubated for six days. Cell viability was determined by an MTS assay. The CC50 values were calculated by using the exponential form of the median effect equation as mentioned below for calculation of EC50.
Analysis of Drug Combination Effects. For determination of CI values, drugs were diluted in a fixed ratio and multiple ratios were analyzed. The drug serial dilutions spanned a range of concentrations near the EC50 value of each compound, so that equivalent antiviral activities could be compared. Concentration-response curves were estimated for each individual drug and every combination using the median-effect equation. The equation was fit using a nonlinear regression routine (Proc Nlin) in PC SAS version 8.01 (SAS Institute Inc., SAS Version 8.01, Cary, N.C.: SAS Institute Inc., 1990).
In this equation, Fa stands for “fraction affected,” and represents the fraction of the viral load that has been inactivated. […] ED50 is drug concentration that is expected to reduce the amount of virus by 50%, and m is a parameter that reflects the slope of the concentration-response curve.
To assess antiviral effects of different drug combination treatments, combination indices (CIs) were calculated according to Chou and Rideout. The combination index was computed as CI=[D]1/[Dm]1+[D]2/[Dm]2
In this equation [Dm]1 and [Dm]2 are the concentrations of drugs that would individually produce a specific level of effect, while [D]1 and [D]2 are the concentrations of drugs in combination that would produce the same level of effect.
Theoretically, additivity is implied if the CI is equal to one, synergy if the CI is less than one, and antagonism if the CI is greater than one. […] At best, we can construct a range that contains the likely values for the CI, given the noise in the data. In this report, these ranges are reported in parentheses next to each point estimate of the CI. […] If the range fell entirely above 1.0, we would infer antagonistic behavior. If the range were to include 1.0, we would infer additivity.
In carrying out the combination experiments below, the EC50 for Compound 1 and each comparator compound was determined during the course of each study, and used in the subsequent data analysis.

[1] = Compound 1 + named drug, EC50 ratio 1:1 (Compound 1:comparator)
[2] = Compound 1 + named drug, EC50 ratio 1:2.5 (Compound 1:comparator)
[3] = Compound 1 + named drug, EC50 ratio 2.5:1 (Compound 1:comparator)

SMILES	EC50	Combined effect at 90% inhibition level (Compound 1 + named drug)	Combined effect at the 50 and 75% inhibition levels (Compound 1 + named drug)	Combination Indices at % HIV Inhibition (Confidence Interval) 50% [1]	Combination Indices at % HIV Inhibition (Confidence Interval) 75% [1]	Combination Indices at % HIV Inhibition (Confidence Interval) 90% [1]	Combination Indices at % HIV Inhibition (Confidence Interval) 50% [2]	Combination Indices at % HIV Inhibition (Confidence Interval) 75% [2]	Combination Indices at % HIV Inhibition (Confidence Interval) 90% [2]	Combination Indices at % HIV Inhibition (Confidence Interval) 50% [3]	Combination Indices at % HIV Inhibition (Confidence Interval) 75% [3]	Combination Indices at % HIV Inhibition (Confidence Interval) 90% [3]	Overall Result (combined anti-HIV effect) (Compound 1 + named drug)	Overall Result (combined anti-HIV effect) (Compound 1 + named drug, listed as delavirdine)	Overall Result (combined anti-HIV effect) (Compound 1 + named drug, listed as efavirenz)
c1cc(CN2CCCNCCNCCCNCC2)ccc1CN1CCCNCCNCCCNCC1 [AMD-3100]	5 nM	tendency to additivity	strongly synergistic	0.44 (0.29, 0.60)	0.62 (0.31, 0.92)	0.98 (0.21, 1.76)	0.56 (0.42, 0.70)	0.54 (0.35, 0.73)	0.66 (0.29, 1.02)	0.52 (0.36, 0.68)	0.61 (0.35, 0.88)	0.77 (0.24, 1.31)	–	–	–
Nc1nc(NC2CC2)c2ncn([C@H]3C=C[C@@H](CO)C3)c2n1 [Abacavir, abacavir]	326 nM	–	–	0.69 (0.49, 0.89)	0.77 (0.46, 1.09)	0.87 (0.30, 1.44)	0.56 (0.45, 0.67)	–	0.48 (0.27, 0.68)	0.10 (0.05, 0.14)	0.27 (0.16, 0.39)	–	Additive-	–	–
COC(=O)N[C@H](C(=O)N[C@@H](Cc1ccccc1)[C@@H](O)CN(Cc1ccc(-c2ccccn2)cc1)NC(=O)[C@@H](NC(=O)OC)C(C)(C)C)C(C)(C)C [Atazanavir, atazanavir]	0.7 nM	–	–	0.53 (0.46, 0.60)	–	0.90 (0.64, 1.17)	–	0.49 (0.29, 0.69)	1.17 (0.38, 1.95)	0.34 (0.26, 0.42)	0.56 (0.38, 0.74)	0.97 (0.46, 1.48)	Additive-	–	–
COc1cnc(-n2cnc(C)n2)c2[nH]cc(C(=O)C(=O)N3CCN(C(=O)c4ccccc4)CC3)c12 [Compound 1, 1-Benzoyl-4-[2-[4-methoxy-7-(3-methyl-1H-1,2,4-triazol-1-yl)-1H-pyrrolo[2,3-c]pyridin-3-yl]-1,2-dioxoethyl]-piperazine]	0.1 to 0.3 nM	–	–	–	–	–	–	–	–	–	–	–	–	–	–
CC(C)Nc1cccnc1N1CCN(C(=O)c2cc3cc(NS(C)(=O)=O)ccc3[nH]2)CC1 [Delavirdine, delavirdine]	25 nM	–	–	0.90 (0.75, 1.06)	0.49 (0.38, 0.61)	0.28 (0.18, 0.39)	0.57 (0.42, 0.71)	0.55 (0.36, 0.75)	0.57 (0.26, 0.89)	0.64 (0.49, 0.78)	0.46 (0.31, 0.60)	0.34 (0.17, 0.50)	Synergistic	synergistic	–

Further molecules by falling EC50, results first:

EC50	SMILES	Combined effect at 90% inhibition level (Compound 1 + named drug)	Combined effect at the 50 and 75% inhibition levels (Compound 1 + named drug)	Combination Indices at % HIV Inhibition (Confidence Interval) 50% [1]	Combination Indices at % HIV Inhibition (Confidence Interval) 75% [1]	Combination Indices at % HIV Inhibition (Confidence Interval) 90% [1]	Combination Indices at % HIV Inhibition (Confidence Interval) 50% [2]	Combination Indices at % HIV Inhibition (Confidence Interval) 75% [2]	Combination Indices at % HIV Inhibition (Confidence Interval) 90% [2]	Combination Indices at % HIV Inhibition (Confidence Interval) 50% [3]	Combination Indices at % HIV Inhibition (Confidence Interval) 75% [3]	Combination Indices at % HIV Inhibition (Confidence Interval) 90% [3]	Overall Result (combined anti-HIV effect) (Compound 1 + named drug)	Overall Result (combined anti-HIV effect) (Compound 1 + named drug, listed as delavirdine)	Overall Result (combined anti-HIV effect) (Compound 1 + named drug, listed as efavirenz)
652 nM	O=c1[nH]cnc2c1ncn2[C@H]1CC[C@@H](CO)O1 [Didanosine, didanosine]	–	–	0.31 (0.29, 0.32)	0.16 (0.15, 0.17)	0.08 (0.08, 0.09)	0.27 (0.23, 0.31)	0.31 (0.24, 0.38)	0.35 (0.23, 0.48)	0.15 (0.11, 0.19)	0.31 (0.22, 0.40)	0.65 (0.31, 0.98)	Synergistic	–	–
25 nM	Nc1nc(=O)n([C@@H]2CS[C@H](CO)O2)cc1F [Emtricitabine, emtricitabine]	–	–	0.42 (0.35, 0.50)	0.49 (0.37, 0.61)	–	0.19 (0.15, 0.22)	0.35 (0.26, 0.44)	0.67 (0.36, 0.99)	0.11 (0.09, 0.12)	0.26 (0.21, 0.31)	0.67 (0.44, 0.89)	Synergistic	–	–
11 nM	CC(C)CN(C[C@@H](O)[C@H](Cc1ccccc1)NC(=O)O[C@H]1CCOC1)S(=O)(=O)c1ccc(N)cc1 [Amprenavir, amprenavir]	–	–	0.14 (0.11, 0.17)	0.35 (0.26, 0.45)	0.87 (0.46, 1.28)	0.13 (0.09, 0.17)	0.27 (0.17, 0.38)	0.58 (0.19, 0.97)	0.46 (0.32, 0.60)	0.79 (0.46, 1.11)	1.33 (0.42, 2.25)	Additive-	–	–
3 nM	CC(C)(C)NC(=O)[C@@H]1CN(Cc2cccnc2)CCN1C[C@@H](O)C[C@@H](Cc1ccccc1)C(=O)N[C@H]1c2ccccc2C[C@H]1O [Indinavir, indinavir]	–	–	0.41 (0.26, 0.56)	0.69 (0.34, 1.04)	1.59 (0.29, 2.90)	0.30 (0.18, 0.41)	0.62 (0.32, 0.92)	1.96 (0.29, 3.64)	0.05 (0.03, 0.06)	0.16 (0.13, 0.20)	0.68 (0.39, 0.98)	Additive-	–	–
1 nM	O=C1Nc2ccc(Cl)cc2[C@@](C#CC2CC2)(C(F)(F)F)O1 [Efavirenz, efavirenz]	–	–	0.70 (0.50, 0.89)	–	0.32 (0.13, 0.50)	0.47 (0.28, 0.65)	0.46 (0.21, 0.70)	0.45 (0.06, 0.83)	0.52 (0.36, 0.69)	0.39 (0.21, 0.57)	0.30 (0.08, 0.51)	Synergistic	–	synergistic
